Test results as given in patent US5508450A, “Benzopyran derivatives” (Ono Pharmaceutical Co., Ltd., priority 1989, dated 1996).
Structures can show the parent of a compound that is named as a salt.

Key:
[1] = tested on: lipid peroxide formation in rat liver homogenate; test: Antioxiding effect: inhibitory activity against formation of peroxidized fat (lipid peroxide by TBA method); type: biochemical, Male Sprague Dawley rat; conditions: 200 μM FeCl2, 10% rat liver homogenate, 37° C., 1 hr
Description: The antioxiding effect of the compounds of the present invention has confirmed by the screening system which examines inhibitory activity against formation of peroxidized fat mentioned below. Male Sprague Dawley rat was fasted for 12 hrs (overnight) before experiments, and was anesthetized with ether. Rat liver was perfused with ice-cold 0.9% NaCl via the portal vein, and promptly excised. 10% Liver homogenates were prepared in ice-cold 1.15% KCl. The reaction was started by adding 200 μM FeCl2 to the liver homogenate ([…]), and incubated at 37° C. for 1 hr. Lipid peroxide was measured by the TBA method according to the method of Ohkawa (See Analytical Biochemistry,95, 351 (1979)). The compounds of the present invention were added before incubation. And the efficacy thereof was examined and calculated IC50 values thereof.

[2] = tested on: Lysozyme (dimer formation with fructose); test: Inhibitory activity on Maillard reaction: formation of lysozyme dimer (lysozyme + fructose, SDS-PAGE, densitometer); type: biochemical; conditions: lysozyme 10 mg/ml, fructose 100 mM, 0.2M sodium phosphate buffer pH 7.4, 37° C., 3 days
Description: The inhibitory activity on Maillard reaction of the compounds of the present invention has confirmed by the screening system mentioned below. Lysozyme (10 mg/ml) and fructose (100 mM) were dissolved in 0.2M sodium phosphatic buffer solution (PH 7.4). The solution was incubated at a temperature of 37° C. for 3 days. A given volume of the reaction solution was separated using SDS-PAGE by the electrophoresis. After the electrophoresis, the SDS-PAGE was dyed by 0.2% Coomassie Brilliant Blue R-250 and then the dimer was determined by densitometer. The compounds of the present invention were added before incubation and the inhibitory activity of them against the formation of the dimer was examined in various concentrations and IC50 values were calculated.

Molecule	IC50 [1]	IC50 [2]
Cc1c(C)c2c(c(C)c1O)CCC(C)(CCOC(=O)C1CCC(CNC(=N)N)CC1)O2 (centres unmarked) [1 (b), 2-(6-hydroxy-2,5,7,8-tetramethyl-3,4-dihydro-2H-benzo[1,2-b]pyran-2-yl)ethyl4-quanidinomethylcyclohexane carboxylatehydrochloride]	0.78 µM	–
Cc1c(C)c2c(c(C)c1O)CCC(C)(CCOC(=O)CCCCNC(=N)N)O2 (centres unmarked) [1 (c), 2-(6-hydroxy-2,5,7,8-tetramethyl-3,4-dihydro-2H-benzo[1,2-b]pyran-2-yl)ethyl5-quanidinopentanoate hydrochloride]	0.8 µM	–
Cc1c(C)c2c(c(C)c1O)CCC(C)(CCOC(=O)CCc1ccc(NC(=N)N)cc1)O2 (centres unmarked) [1 (g), 2-(6-hydroxy-2,5,7,8-tetramethyl-3,4-dihydro-2H-benzo[1,2-b]pyran-2-yl)ethyl3-(4-quanidinophenyl)-propionate hydrochloride]	0.9 µM	–
Cc1c(C)c2c(c(C)c1O)CCC(C)(CCCCOc1ccc(NC(=N)N)cc1C(F)(F)F)O2 (centres unmarked) [10 (a), 2-trifluoromethyl-4-guanidinophenyl 4-(6-hydroxy-2,5,7,8-tetramethyl-3,4-dihydro-2H-benzo[1,2-b]-pyran-2-yl)butyl ether hydrochloride]	–	21 µM
Cc1c(C)c2c(c(C)c1O)CCC(C)(CCCCSc1ccc(NC(=N)N)cc1)O2 (centres unmarked) [10 (e), 4-guanidinophenyl 4-(6-hydroxy-2,5,7,8-tetramethyl-3,4-dihydro-2H-benzo[1,2-b]pyran-2-yl)butyl thioether hydrochloride]	–	36 µM
Cc1c(C)c2c(c(C)c1O)CCC(C)(CCCCNC(=O)COc1ccc(NC(=N)N)cc1)O2 (centres unmarked) [22 (a), N-[4-(6-hydroxy-2,5,7,8-tetramethyl-3,4-dihydro-2H-benzo[1,2,-b]pyran-2-yl)butyl]-2-(4-guanidinophenoxy)acetamide hydrochloride]	–	500 µM
Cc1c(C)c2c(c(C)c1O)CCC(C)(CCN(Cc1ccccc1)C(=O)/C=C/c1ccc(NC(=N)N)cc1)O2 (centres unmarked) [24 (a), N-benzyl-N-[2-(6-hydroxy-2,5,7,8-tetramethyl-3,4-dihydro-2H-benzo[1,2-b]pyran-2-yl)ethyl]-4-guanidinocinnamamide hydrochloride]	–	68 µM
Cc1c(C)c2c(c(C)c1O)CCC(C)(CCSCCOc1ccc(NC(=N)N)cc1)O2 (centres unmarked) [27 (b), 4-guanidinophenyl 2-[2-(6-hydroxy-2,5,7,8-tetramethyl-3,4-dihydro-2H-benzo[1,2-b]-pyran-2-yl)ethylthio]ethyl ether hydrochloride]	–	190 µM
Cc1c(C)c2c(c(C)c1O)CCC(C)(CCOc1ccc(CCCOc3ccc(NC(=N)N)cc3)cc1)O2 (centres unmarked) [27 (f), 4-guanidinophenyl 3-[4-[2-(6-hydroxy-2,5,7,8-tetramethyl-3,4-dihydro-2H-benzo[1,2-b]-pyran-2-yl)ethoxy]phenyl]-propyl ether hydrochloride]	–	5.6 µM
Cc1c(C)c2c(c(C)c1O)CCC(C)(CCCCOc1ccc(CCSc3ccc(NC(=N)N)cc3)cc1)O2 (centres unmarked) [28 (c), 4-guanidinophenyl 2-[4-[4-(6-hydroxy-2,5,7,8-tetramethyl-3,4-dihydro-2H-benzo[1,2-b]-pyran-2-yl)butoxy]phenyl]-ethyl thioether hydrochloride]	–	4.2 µM
Cc1c(C)c2c(c(C)c1O)CCC(C)(CCCCCCOc1ccc(NC(=N)N)cc1)O2 (centres unmarked) [29 (a), 4-guanidinophenyl 6-(6-hydroxy-2,5,7,8-tetramethyl-3,4-dihydro-2H-benzo[1,2-b]pyran-2-yl)-n-hexyl ether hydrochloride]	–	20 µM
Cc1c(C)c2c(c(C)c1O)CCC(C)(CCOCc1ccc(CNC(=N)NN)cc1)O2 (centres unmarked) [Example 4, 4-(3-aminoguamidinomethyl)benzyl 2-(6-hydroxy-2,5,7,8-tetramethyl-3,4-dihydro-2H-benzo[1,2-b]pyran-2-yl)ethyl ether hydroiodide]	–	150 µM
Cc1c(C)c2c(c(C)c1O)CCC(C)(CCOc1ccc(NC(=N)N)cc1)O2 (centres unmarked) [Example 5, 4-guanidinophenyl 2-(6-hydroxy-2,5,7,8-tetramethyl-3,4-dihydro-2H-benzo[1,2-b]pyran-2-yl)ethyl ether hydrochloride]	–	320 µM
Cc1c(C)c2c(c(C)c1O)CCC(C)(CCCCNC(=N)NN)O2 (centres unmarked) [Example 8, 1-amino-3-[4-(6-hydroxy-2,5,7,8-tetramethyl-3,4-dihydro-2H-benzo[1,2-b]pyran-2-yl)butyl]guanidine hydroiodide]	–	300 µM
Cc1c(C)c2c(c(C)c1O)CCC(C)(CCCCOc1ccc(NC(=O)/C=C/c3ccc(NC(=N)N)cc3)cc1)O2 (centres unmarked) [Example 9, N-[4-[4-(6-hydroxy-2,5,7,8-tetramethyl-3,4-dihydro-2H-benzo[1,2-b]pyran-2-yl)butoxy]phenyl]-4-guanidinocinnamamide hydrochloride]	–	6.2 µM
N-[4-[2-(6-hydroxy-2,5,7,8-tetramethyl-3,4-dihydro-2H-benzo[1,2-b]pyran-2-yl)-ethoxy]phenyl]-3-guanidino-cinnamamide hydrochloride [7 (b)]	–	12 µM

Further lines, results first:

IC50 [1]	IC50 [2]	Molecule
–	75 µM	Cc1c(C)c2c(c(C)c1O)CCC(C)(CCCCOc1ccc(NC(=N)N)cc1)O2 (centres unmarked) [Example 10, 4-guanidinophenyl 4-(6-hydroxy-2,5,7,8-tetramethyl-3,4-dihydro-2H-benzo[1,2-b]pyran-2-yl)butyl ether hydrochloride]
–	200 µM	Cc1c(C)c2c(c(C)c1O)CCC(C)(CCCCNC(=O)Nc1cccc(NC(=N)N)c1)O2 (centres unmarked) [Example 12, 1-[4-(6-hydroxy-2,5,7,8-tetramethyl-3,4-dihydro-2H-benzo[1,2-b]pyran-2-yl)butyl]-3-(3-guanidinophenyl)urea hydrochloride]
–	220 µM	CCOC(=O)c1cc(NC(=N)N)cc(C(=O)NCCC2(C)CCc3c(C)c(O)c(C)c(C)c3O2)c1 (centres unmarked) [Example 14, N-[2-(6-hydroxy-2,5,7,8-tetramethyl-3,4-dihydro-2H-benzo[1,2-b]pyran-2-yl)ethyl]-3-ethoxycarbonyl-5-guanidinobenzamide hydrochloride]
–	220 µM	CCOC(=O)c1cc(NC(=N)N)ccc1OCCC1(C)CCc2c(C)c(O)c(C)c(C)c2O1 (centres unmarked) [Example 15, 2-ethoxycarbonyl-4-guanidinophenyl 2-(6-hydroxy-2,5,7,8-tetramethyl-3,4-dihydro-2H-benzo[1,2-b]pyran-2-yl)ethyl ether hydrochloride]
–	13 µM	CCOC(=O)c1cc(NC(=N)N)cc(C(=O)Nc2ccc(OCCC3(C)CCc4c(C)c(O)c(C)c(C)c4O3)cc2)c1 (centres unmarked) [Example 17, N-[4-[2-(6-hydroxy-2,5,7,8-tetramethyl-3,4-dihydro-2H-benzo[1,2-b]pyran-2-yl)ethoxy]phenyl]-3-ethoxycarbonyl-5-guanidinobenzamide hydrochloride]
–	56 µM	Cc1c(C)c2c(c(C)c1O)CCC(C)(CCOc1ccc(CCCNC(=N)NN)cc1)O2 (centres unmarked) [Example 19, 4-[3-(3-aminoguanidino)propyl]phenyl 2-(6-hydroxy-2,5,7,8-tetramethyl-3,4-dihydro-2H-benzo[1,2-b]pyran-2-yl)ethyl ether hydroiodide]
–	220 µM	Cc1c(C)c2c(c(C)c1O)CCC(C)(CCOCCNC(=O)/C=C/c1ccc(NC(=N)N)cc1)O2 (centres unmarked) [Example 21, N-[2-[2-(6-hydroxy-2,5,7,8-tetramethyl-3,4-dihydro-2H-benzo[1,2-b]pyran-2-yl)ethoxy]ethyl]-4-guanidinocinnamamide hydrochloride]
–	48 µM	Cc1c(C)c2c(c(C)c1O)CCC(C)(CCCCNC(=O)/C=C/c1ccc(NC(=N)N)cc1)O2 (centres unmarked) [Example 22, N-[4-(6-hydroxy-2,5,7,8-tetramethyl-3,4-dihydro-2H-benzo[1,2-b]pyran-2-yl)butyl]-4-guanidinocinnamamide hydrochloride]
–	130 µM	Cc1c(C)c2c(c(C)c1O)CCC(C)(CC=CCCCCNC(=N)NN)O2 (centres unmarked) [Example 23, 2-[7-(3-aminoguanidino)hept-2-enyl]-6-hydroxy-2,5,7,8-tetramethyl-3,4-dihydro-2H-benzo[1,2,-b]pyran hydroiodide]
–	180 µM	Cc1c(C)c2c(c(C)c1O)CCC(C)(CCN(C)C(=O)/C=C/c1ccc(NC(=N)N)cc1)O2 (centres unmarked) [Example 24, N-methyl-N-[2-(6-hydroxy-2,5,7,8-tetramethyl-3,4-dihydro2H-benzo[1,2-b]pyran-2-yl)ethyl]-4-guanidinocinnamamide hydrochloride]
–	270 µM	Cc1c(C)c2c(c(C)c1O)CCC(C)(CCOCCNC(=N)NN)O2 (centres unmarked) [Example 26, 2-(3-aminoguanidino)ethyl 2-(6-hydroxy-2,5,7,8-tetramethyl-3,4-dihydro-2H-benzo[1,2-b]pyran-2-yl)ethyl ether hydrochloride]
–	5.8 µM	Cc1c(C)c2c(c(C)c1O)CCC(C)(CCOc1ccc(CCOc3ccc(NC(=N)N)cc3)cc1)O2 (centres unmarked) [Example 27, 4-guanidinophenyl 2-[4-[2-(6-hydroxy-2,5,7,8-tetramethyl-3,4-dihydro-2H-benzo[1,2-b]pyran-2-yl)ethoxy]phenyl]ethyl ether hydrochloride]
–	7.5 µM	Cc1c(C)c2c(c(C)c1O)CCC(C)(CCCCCCSc1ccc(NC(=N)N)cc1)O2 (centres unmarked) [Example 29, 4-guanidinophenyl 6-(6-hydroxy-2,5,7,8-tetramethyl-3,4-dihydro-2H-benzo[1,2-b]pyran-2-yl)-n-hexyl thioether hydrochloride]
